# Bridges are numbered along the chain shown (N, C = ends). The star is where a group is joined. Biotin = O=C1N[C@H]2[C@H](CS[C@H]2CCCCC(=O)*)N1
# B1: scrambled RNAse: ribonuclease A, with scrambled disulfide bonds from bovine pancreas (protein, UniProt P61823 27-150, looked up)
# Ribonuclease pancreatic: KETAAAKFERQHMDSSTSAASSSNYCNQMMKSRNLTKDRCKPVNTFVHESLADVQAVCSQKNVACKNGQTNCYQSYSTMSITDCRETGSSKYPNCAYKTTQANKHIIVACEGNPYVPVHFDASV
# modifications: scrambled disulfide bonds
# notes: ribonuclease A, with scrambled disulfide bonds from bovine pancreas
# B2: NusA-Nox2(328–570): fusion protein of NusA and Nox2 residues 328–570 (protein)
# chain: KCPKVSKLEWHPFTLTSAPEEDFFSIHIRIVGDWTEGLFNACGCDKQEFQDAWKLPKIAVDGPFGTASEDVFSYEVVMLVGAGIGVTPFASILKSVWYKYCNNATNLKLKKIYFYWLCRDTHAFEWFADLLQLLESQMQERNNAGFLSYNIYLTGWDESQANHFAVHHDEEKDVITGLKQKTLYGRPNWDNEFKTIASQHPNTRIGVFLCGPEALAETLSKQSISNSESGPRGVHFIFNKENF
# modifications: left off: NusA (E. coli), N-terminal, kept | His tag (from the purification on Nickel Sepharose), end not stated, state not stated
# B3: Nox2 peptide 24 (357–371) with an intramolecular disulfide bond between C369 and C371 (peptide)
# peptide: Biotin-SGSGIVGDWTEGLFNACGC-NH2
# modifications: disulfide 17-19
# SMILES: CC[C@H](C)[C@H](NC(=O)CNC(=O)[C@H](CO)NC(=O)CNC(=O)[C@H](CO)NC(=O)CCCC[C@@H]1SC[C@@H]2NC(=O)N[C@@H]21)C(=O)N[C@H](C(=O)NCC(=O)N[C@@H](CC(=O)O)C(=O)N[C@@H](Cc1c[nH]c2ccccc12)C(=O)N[C@H](C(=O)N[C@@H](CCC(=O)O)C(=O)NCC(=O)N[C@@H](CC(C)C)C(=O)N[C@@H](Cc1ccccc1)C(=O)N[C@@H](CC(N)=O)C(=O)N[C@@H](C)C(=O)N[C@H]1CSSC[C@@H](C(N)=O)NC(=O)CNC1=O)[C@@H](C)O)C(C)C
# notes: spacer between the N-terminal biotin and the peptide, printed as Ser-Gly-Ser-Gly; also called 24N CGC S-S; 24N S-S; source: synthetic peptide (Mimotopes or Bachem), synthesized in the disulfide form; also made from the reduced peptide by oxidation with 1 mM H2O2; not shown: biotin, N-terminal, kept
# B4: Nox2 peptide 24 analog with CGC replaced by CysGlyHisCys, intramolecular disulfide bond between cysteines 369 and 372 (peptide)
# peptide: Biotin-SGSGIVGDWTEGLFNACGHC-NH2
# modifications: disulfide 17-20
# SMILES: CC[C@H](C)[C@H](NC(=O)CNC(=O)[C@H](CO)NC(=O)CNC(=O)[C@H](CO)NC(=O)CCCC[C@@H]1SC[C@@H]2NC(=O)N[C@@H]21)C(=O)N[C@H](C(=O)NCC(=O)N[C@@H](CC(=O)O)C(=O)N[C@@H](Cc1c[nH]c2ccccc12)C(=O)N[C@H](C(=O)N[C@@H](CCC(=O)O)C(=O)NCC(=O)N[C@@H](CC(C)C)C(=O)N[C@@H](Cc1ccccc1)C(=O)N[C@@H](CC(N)=O)C(=O)N[C@@H](C)C(=O)N[C@H]1CSSC[C@@H](C(N)=O)NC(=O)[C@H](Cc2c[nH]cn2)NC(=O)CNC1=O)[C@@H](C)O)C(C)C
# notes: spacer between the N-terminal biotin and the peptide, printed as Ser-Gly-Ser-Gly; also called 24N CGHC S-S (disulfide form); source: synthetic peptide (Mimotopes or Bachem), synthesized in the disulfide form; also made from the reduced peptide by oxidation with 1 mM H2O2; not shown: biotin, N-terminal, kept
# B5: Nox2 peptide 24 analog with CGC replaced by CysGlyProCys, intramolecular disulfide bond between cysteines 369 and 372 (peptide)
# peptide: Biotin-SGSGIVGDWTEGLFNACGPC-NH2
# modifications: disulfide 17-20
# SMILES: CC[C@H](C)[C@H](NC(=O)CNC(=O)[C@H](CO)NC(=O)CNC(=O)[C@H](CO)NC(=O)CCCC[C@@H]1SC[C@@H]2NC(=O)N[C@@H]21)C(=O)N[C@H](C(=O)NCC(=O)N[C@@H](CC(=O)O)C(=O)N[C@@H](Cc1c[nH]c2ccccc12)C(=O)N[C@H](C(=O)N[C@@H](CCC(=O)O)C(=O)NCC(=O)N[C@@H](CC(C)C)C(=O)N[C@@H](Cc1ccccc1)C(=O)N[C@@H](CC(N)=O)C(=O)N[C@@H](C)C(=O)N[C@H]1CSSC[C@@H](C(N)=O)NC(=O)[C@@H]2CCCN2C(=O)CNC1=O)[C@@H](C)O)C(C)C
# notes: spacer between the N-terminal biotin and the peptide, printed as Ser-Gly-Ser-Gly; also called 24N CGPC S-S (disulfide form); source: synthetic peptide (Mimotopes or Bachem), synthesized in the disulfide form; also made from the reduced peptide by oxidation with 1 mM H2O2; not shown: biotin, N-terminal, kept
# B6: NusA-Nox2(372–570): fusion protein of NusA and Nox2 residues 372–570, lacks the CGC triad (protein)
# chain: DKQEFQDAWKLPKIAVDGPFGTASEDVFSYEVVMLVGAGIGVTPFASILKSVWYKYCNNATNLKLKKIYFYWLCRDTHAFEWFADLLQLLESQMQERNNAGFLSYNIYLTGWDESQANHFAVHHDEEKDVITGLKQKTLYGRPNWDNEFKTIASQHPNTRIGVFLCGPEALAETLSKQSISNSESGPRGVHFIFNKENF
# modifications: left off: NusA (E. coli), N-terminal, kept | His tag (from the purification on Nickel Sepharose), end not stated, state not stated
# notes: fusion protein of NusA and Nox2 residues 372–570, lacks the CGC triad
# Experiments:
# [1] = PDI reductase activity, DE-GSSG reduction; assay type: biochemical; settings: for PDI activity of isolated Nox2 peptides: DE-GSSG reduction over a wide concentration range
# [2] = tested on: NADPH oxidase; parameters: method as in 8 sources, one per row (each row's own in cited_ref): ref Shpungin et al., [1989] ||| ref Bellavite et al., [1983]; Gabig and Lefker, [1984] ||| ref Pick et al., [1987] ||| ref Le Cabec and Maridonneau-Parini, [1995] ||| ref Nishida et al., [2005] ||| ...; settings: ref Paes et al., [2011], cited from earlier work
# [3] = target: NADPH oxidase (macrophage membrane liposomes, cytochrome b558) (Cavia porcellus, UniProt H0UXC6); assay type: biochemical, guinea pig
# [4] = tested on: p67^phox(1–526); test: Effect of thiol reagents on binding of p67phox(1–526) to Nox2 peptide 24; settings: 1 h room temperature
# [5] = tested on: oxidized insulin; test: Insulin reduction (turbidimetric) assay; assay type: biochemical; settings: recombinant PDI
# [6] = tested on: p67^phox(1–212); test: Peptide–protein binding assay, p67phox(1–212); settings: native (non-disulfide) peptide
# [7] = tested on: p67^phox(1–526); test: Peptide–protein binding assay, p67phox(1–526); settings: native (non-disulfide) peptide
# [8] = tested on: recombinant 6His-p67^phox; test: Peptide–protein binding assay / peptide walking, p67phox; settings: statement of Results section
# [9] = tested on: recombinant 6His-p67^phox; settings: manuscript in preparation, cited from earlier work; for binding of p67phox to overlapping 15-mer peptides (peptide walking): ref Dahan and Pick; for binding of p67phox after introduction of intramolecular disulfide bond between C369 and C371 / binding of p67phox after reduction of the disulfide bond and alkylation of the reduced thiols: ref Fradin et al., [2011], [2012], Pick, Fradin and Pick
# Text: The cytosolic segment of Nox2 is also known as the dehydrogenase region (DHR) by virtue of the fact that it contains the NADPH- and FAD-binding sites and is homologous to the prokaryotic protein ferredoxin-NADP^+ reductase. The DHR comprises binding sites for p47^phox and Rac but, so far, there is no solid evidence for the identity of the binding site(s) for p67^phox. We approached this question by applying the “peptide walking” methodology (Joseph and Pick, [1995]; Dahan et al., [2012]; Dahan and Pick, [2012]). […] An important observation was that enhanced binding of p67^phox was evident only when the disulfide bond was established between two non-adjacent cysteines and between cysteines present in the same peptide; when the CGC tria ...
# [10] = tested on: p67^phox(1–526); test: Protein–protein binding assay, p67phox(1–526); settings: homodimers, 0.5 μM, p67phox coated at 0.5 μM; one characteristic experiment (Figure 5A)
# [11] = tested on: p67^phox(1–212); test: Protein–protein binding assay, p67phox(1–212); settings: homodimers, 0.5 μM, p67phox coated at 0.5 μM; one characteristic experiment (Figure 5B)
# [12] = target: T1, p67^phox(1–212) (UniProt P19878 1-212); test: ELISA; peptide—protein binding assay as a1, with peptide 24 and the modified peptides, all in the reduced form, subjected to oxidation by 1 mM H2O2; settings: both partners purified
# T1 construct: contains four cysteines (40, 45, 121, 165); source: E. coli, purified (Nickel Sepharose); not shown: 6His, N-terminal, kept
# T1 sequence (looked up): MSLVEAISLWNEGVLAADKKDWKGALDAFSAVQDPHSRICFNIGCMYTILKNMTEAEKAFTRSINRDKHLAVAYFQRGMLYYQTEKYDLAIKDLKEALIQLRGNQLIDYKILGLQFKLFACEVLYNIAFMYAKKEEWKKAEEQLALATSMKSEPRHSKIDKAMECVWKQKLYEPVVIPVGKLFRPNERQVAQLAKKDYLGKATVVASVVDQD
molecule,measurement,setting,value
NC(=O)C1=CN([C@@H]2O[C@H](COP(=O)(O)OP(=O)(O)OC[C@H]3O[C@@H](n4cnc5c(N)ncnc54)[C@H](OP(=O)(O)O)[C@@H]3O)[C@@H](O)[C@H]2O)C=CC1 [NADPH],replacement of DTT in the DE-GSSG reduction assay,[1]; up to 125 μM,could not be replaced
oxidized PDI: exogenous oxidized PDI,effect of exogenous PDI on oxidase activation in vitro,[2],enhance
reduced PDI: exogenous reduced PDI,effect of exogenous PDI on oxidase activation in vitro,[2],diminish
16F16,"inhibition of oxidase activation, in words",[3],Lack of an inhibitory effect
CN(C)C(=O)/N=N/C(=O)N(C)C [diamide],effect of pretreatment of p67phox on low affinity binding to native form of peptide 24,"[4]; NEM 0.1 mM or diamide 5 mM, three experiments (Figure 2A,B)",suppressed
same,effect of diamide pretreatment of p67phox on binding to peptide 24 in the disulfide form,"[4]; p67^phox(1–526) 1.5 μM, diamide 5 mM, three experiments (Figure 2B)",totally abolished
"PDIA1: Recombinant PDI A1 (human), made in E. coli [reference compound]","Vmax, PDI reductase activity (Figure 7C,D)","[1]; 10 nM, DE-GSSG 0.8 μM, DTT 12.5 μM, pH 7.0, 24°C, mean ± SEM of 4 (PDIA1), 3 (PDIA3) experiments","37,303 ± 1279"
same,reductase activity relative to NusA-Nox2(357–570),[1]; extrapolation of Vmax at 10 nM PDI to Vmax with 1 μM NusA-Nox2(357–570),about 75 times
same,concentration down to which activity could be measured in insulin reduction assay,[5],10 nM
"peptide 28: 15-mer Nox2 peptide, residues 369–383, CGC triad at N-terminus (CGCDKQEFQDAWKLP; UniProt P04839 369-383, looked up, fragment)",binding of p67phox(1–212),[6],low affinity
same,binding of p67phox(1–526),[7],low affinity
same,increase in binding of p67phox on introduction of intramolecular disulfide bond linking C369 and C371,[8],marked increase
same,PDI activity of isolated Nox2 peptides,[1],No PDI activity
same,binding of p67phox to overlapping 15-mer peptides (peptide walking),[9],binds preferentially
same,binding of p67phox after introduction of intramolecular disulfide bond between C369 and C371,[9],marked increase
same,binding of p67phox after reduction of the disulfide bond and alkylation of the reduced thiols,[9],totally abolished
"IVGDWTEGLFNACGC [peptide 24, 15-mer Nox2 peptide, residues 357–371, CGC triad at C-terminus]",binding of p67phox(1–212),[6],low affinity
same,binding of p67phox(1–526),[7],low affinity
same,increase in binding of p67phox on introduction of intramolecular disulfide bond linking C369 and C371,[8],marked increase
same,PDI activity of isolated Nox2 peptides,[1],No PDI activity
same,binding of p67phox to overlapping 15-mer peptides (peptide walking),[9],binds preferentially
same,binding of p67phox after introduction of intramolecular disulfide bond between C369 and C371,[9],marked increase
same,binding of p67phox after reduction of the disulfide bond and alkylation of the reduced thiols,[9],totally abolished
B1,"IC50, NADPH oxidase activation",[3],could not be determined
same,"inhibition of oxidase activation, in words",[3],ineffective
same,"inhibition of oxidase activation, amphiphile-dependent cell-free system",[2]; neutrophil membranes and recombinant cytosolic components,inhibit oxidase activation
B2,binding of NusA-Nox2 to p67phox(1–526),[10],significant binding
same,binding of NusA-Nox2 to p67phox(1–212),[11],significant binding
B3,binding result,[12],binds
B4,binding result,[12],binds
B5,binding result,[12],binds
B6,loss of PDI activity,[1]; 2 μM (Figure 6C),almost complete loss of PDI activity
same,"Vmax, PDI reductase activity (Figure 6C)","[1]; 2 μM, DE-GSSG 800 nM, DTT 12.5 μM, one characteristic experiment, DTT only 26,248","31,920 milli relative fluorescence units per min"
